Laboratory results reported in the supplement of paper PMC10307832.

Assays:
Experiment in all cases: relative viability (nuclei count vs DMSO), 5 days (fraction); higher = more cells survive
AZ628 + Pemetrexed = compound: CC1=C(C=C(C=C1)NC(=O)C2=CC(=CC=C2)C(C)(C)C#N)NC3=CC4=C(C=C3)N=CN(C4=O)C [AZ628] + Nc1nc2[nH]cc(CCc3ccc(C(=O)N[C@@H](CCC(=O)O)C(=O)O)cc3)c2c(=O)[nH]1 [Pemetrexed] (partner 0.2 µM)
In short: (§1)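 Lung cancer cell lines in 1536-well plates were dosed by pin tool the day after seeding, either with one drug alone or with a fixed anchor-drug dose plus five library-drug doses (not always all listed) in √10 steps. After 5 days, cells were fixed and their nuclei stained in one step (final 0.05% Triton X-100, 1% formaldehyde, 1 ug/ml Hoechst), then counted on 4× images. Relative viability is the nuclei count in treated wells divided by that in vehicle wells. Values are medians of duplicate plates.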

QS11 + Olaparib = compound: C1CC2=C(C1)C=C(C=C2)OC3=NC(=C4C(=N3)N(C=N4)CC5=CC=C(C=C5)C6=CC=CC=C6)N[C@@H](CC7=CC=CC=C7)CO [QS11] + O=C(c1cc(Cc2n[nH]c(=O)c3ccccc23)ccc1F)N1CCN(C(=O)C2CC2)CC1 [Olaparib] (partner 8 µM)
In short: as §1

[1] = compound: C[As](C)SC[C@H](NC(=O)CC[C@H](N)C(=O)O)C(=O)NCC(=O)O [Darinaparsin] + CC(=O)Nc1cccc(-n2c(=O)n(C3CC3)c(=O)c3c(Nc4ccc(I)cc4F)n(C)c(=O)c(C)c32)c1 [Trametinib] (partner 0.02 µM)
In short: as §1

AZ628 + Pictilisib = compound: CC1=C(C=C(C=C1)NC(=O)C2=CC(=CC=C2)C(C)(C)C#N)NC3=CC4=C(C=C3)N=CN(C4=O)C [AZ628] + CS(=O)(=O)N1CCN(Cc2cc3nc(-c4cccc5[nH]ncc45)nc(N4CCOCC4)c3s2)CC1 [Pictilisib] (partner 1 µM)
In short: as §1

| Cell Line | relative viability (AZ628 + Pemetrexed; first compound 0.08 µM) | relative viability (AZ628 + Pemetrexed; first compound 0.253 µM) | relative viability (AZ628 + Pemetrexed; first compound 0.8 µM) | relative viability (AZ628 + Pemetrexed; first compound 2.53 µM) | relative viability (AZ628 + Pemetrexed; first compound 8 µM) | relative viability (QS11 + Olaparib; first compound 0.08 µM) | relative viability (QS11 + Olaparib; first compound 0.253 µM) | relative viability (QS11 + Olaparib; first compound 0.8 µM) | relative viability (QS11 + Olaparib; first compound 2.53 µM) | relative viability (QS11 + Olaparib; first compound 8 µM) | relative viability ([1]; first compound 0.08 µM) | relative viability ([1]; first compound 0.8 µM) | relative viability ([1]; first compound 2.53 µM) | relative viability ([1]; first compound 8 µM) | relative viability (AZ628 + Pictilisib; first compound 0.08 µM) | relative viability (AZ628 + Pictilisib; first compound 0.253 µM) | relative viability (AZ628 + Pictilisib; first compound 0.8 µM) | relative viability (AZ628 + Pictilisib; first compound 2.53 µM) | relative viability (AZ628 + Pictilisib; first compound 8 µM) |
| --- | --- | --- | --- | --- | --- | --- | --- | --- | --- | --- | --- | --- | --- | --- | --- | --- | --- | --- | --- |
| NCI-H358 | 0.172 | 0.159 | 0.152 | 0.142 | 0.142 | 0.635 | 0.62 | 0.566 | 0.633 | 0.618 | 0.112 | 0.129 | 0.134 | 0.145 | 0.341 | 0.289 | 0.286 | 0.308 | 0.349 |
| NCI-H441 | 0.279 | 0.252 | 0.235 | 0.263 | 0.26 | 0.511 | 0.54 | 0.518 | 0.364 | 0.463 | 0.507 | 0.471 | 0.429 | 0.295 | 0.417 | 0.45 | 0.444 | 0.403 | 0.283 |
| NCI-H460 | 0.0707 | 0.055 | 0.0564 | 0.0595 | 0.0641 | 0.422 | 0.435 | 0.36 | 0.416 | 0.277 | 0.312 | 0.329 | 0.12 | 0.166 | 0.323 | 0.25 | 0.254 | 0.269 | 0.127 |
| NCI-H520 | 0.669 | 0.596 | 0.67 | 0.707 | 0.286 | 0.347 | 0.304 | 0.394 | 0.313 | 0.301 | 0.883 | 0.718 | 0.669 | 0.697 | 0.312 | 0.313 | 0.273 | 0.212 | 0.204 |
| NCI-H596 | 0.496 | 0.485 | 0.521 | 0.525 | 0.521 | 0.724 | 0.563 | 0.634 | 0.606 | 0.61 | 0.762 | 0.748 | 0.856 | 0.755 | 0.36 | 0.383 | 0.382 | 0.376 | 0.42 |
| NCI-H647 | 0.201 | 0.17 | 0.179 | 0.161 | 0.151 | 0.676 | 0.523 | 0.541 | 0.604 | 0.664 | 0.537 | 0.512 | 0.385 | 0.655 | 0.385 | 0.163 | 0.313 | 0.247 | 0.27 |
| NCI-H650 | 0.947 | 1.15 | 1.08 | 1.18 | 1.11 | 0.316 | 0.364 | 0.375 | 0.316 | 0.418 | 0.856 | 1.01 | 1.04 | 0.956 | 1.07 | 1 | 1.06 | 1.12 | 0.732 |
| NCI-H661 | 0.95 | 0.979 | 0.867 | 0.848 | 0.822 | 0.708 | 0.791 | 0.637 | 0.745 | 0.71 | 0.646 | 0.618 | 0.532 | 0.677 | 0.401 | 0.312 | 0.302 | 0.353 | 0.331 |
| NCI-H838 | 0.261 | 0.23 | 0.243 | 0.242 | 0.225 | 0.873 | 0.743 | 0.582 | 0.718 | 0.709 | 0.54 | 0.458 | 0.504 | 0.666 | 0.523 | 0.559 | 0.356 | 0.403 | 0.365 |
| NCI-H1355 | 1.06 | 1.02 | 0.843 | 0.996 | 0.716 | 0.624 | 0.732 | 0.693 | 0.678 | 0.75 | 0.462 | 0.403 | 0.378 | 0.426 | 0.454 | 0.395 | 0.404 | 0.34 | 0.285 |
| NCI-H1395 | 0.939 | 0.789 | 0.806 | 0.637 | 0.712 | 0.464 | 0.463 | 0.446 | 0.468 | 0.472 | 1.24 | 0.954 | 0.957 | 0.94 | 0.645 | 0.621 | 0.618 | 0.629 | 0.662 |
| NCI-H1437 | 0.332 | 0.293 | 0.292 | 0.296 | 0.294 | 0.661 | 0.635 | 0.673 | 0.625 | 0.541 | 0.594 | 0.562 | 0.505 | 0.674 | 0.505 | 0.476 | 0.526 | 0.532 | 0.483 |
| NCI-H1650 | 0.403 | 0.386 | 0.419 | 0.431 | 0.38 | 0.825 | 0.816 | 0.719 | 0.686 | 0.898 | 0.915 | 0.49 | 0.593 | 0.636 | 0.741 | 0.604 | 0.614 | 0.5 | 0.342 |
| NCI-H1651 | 0.632 | 0.522 | 0.563 | 0.711 | 0.554 | 0.168 | 0.202 | 0.171 | 0.195 | 0.162 | 0.825 | 0.784 | 0.813 | 0.898 | 0.698 | 0.685 | 0.587 | 0.537 | 0.599 |
| NCI-H1666 | 0.788 | 0.79 | 0.766 | 0.788 | 0.715 | 0.78 | 0.75 | 0.697 | 0.693 | 0.516 | 1.03 | 0.845 | 0.858 | 0.912 | 0.404 | 0.296 | 0.339 | 0.362 | 0.313 |
| NCI-H1734 | 0.375 | 0.423 | 0.397 | 0.391 | 0.34 | 0.625 | 0.649 | 0.608 | 0.587 | 0.507 | 0.724 | 0.611 | 0.655 | 0.677 | 0.432 | 0.359 | 0.351 | 0.367 | 0.306 |
